Drawing on US20240150293A1, “SPIROCYCLOHEXANE DERIVATIVES, PHARMACEUTICAL COMPOSITIONS CONTAINING THEM AND THEIR USES AS ANTI-APOPTOTIC INHIBITORS” (LES LABORATOIRES SERVIER, priority 2021, published 2024), this text covers Ki and IC50 for 14 compounds.

Where two headings read alike, the source gives them in different places.

In assay [1] the target is Cy5-labelled Mcl1 (amino acids 171-321) C286S protein (UniProtKB Q07820) (Homo sapiens (Human), UniProt Q07820, C286S). Nature of the assay: Inhibition of Mcl-1 by the fluorescence quenching assay (Example A, Method B). The class given is binding. In short, it runs like this: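 Cy5-labelled Mcl1 171-321 C286S (1 nM) quenched by TQ5WS-labelled PUMA peptide (10, 20 or 400 nM); displacement raises fluorescence (Ex 620/Em 680 nm). Buffer 10 mM HEPES, 150 mM NaCl, 0.05% Tween 20, pH 7.4, 5% DMSO; 2 h at room temperature, 11-point curves, IC50 converted to Ki (cKi/eKi).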
Sequence of Cy5-labelled Mcl1 (amino acids 171-321) C286S protein (Q07820 171-321 C286S): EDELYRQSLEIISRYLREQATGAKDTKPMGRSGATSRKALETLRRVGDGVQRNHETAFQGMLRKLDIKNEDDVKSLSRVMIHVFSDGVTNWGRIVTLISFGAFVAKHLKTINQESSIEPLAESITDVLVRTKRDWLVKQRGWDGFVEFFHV

The test system of assay [2] is H929 multiple myeloma tumor line. Nature of the assay: In vitro cytotoxicity, MTT assay (Example B, Method A). The class given is cell-based. The settings on record: H929 cells, 48 hours exposure, read-out: C50. How it is done:
The cytotoxicity studies were carried out on the H929 multiple myeloma tumor line.
The cells are distributed onto microplates and exposed to the test compounds for 48 hours. The cell viability is then quantified by a colorimetric assay, the Microculture Tetrazolium Assay (Carmichael et al, Cancer Res. 1987, 47, 939-942).
The results are expressed in C50 which means concentration corresponding to […] of effect/inhibition.

For orientation: Ki means the dissociation constant of the complex between target and ligand, obtained from inhibition or displacement. As to `C[C@@H](COc1ccnc2c1[C@@H](C)CC[C@H]2O)C[C@H]1Cc2ccccc2[C@]12CC[C@@](Nc1cccc(Cl)c1)(C(=O)O)CC2` [Example 674, (1r,2′S,4S)-4-(3-chloroanilino)-2′-[(2R)-3-{[(5S,8R)-8-hydroxy-5-methyl-5,6,7,8-tetrahydroquinolin-4-yl]oxy}-2-methylpropyl]-2′,3′-dihydrospiro[cyclohexane-1,1′-indene]-4-carboxylic acid], the Ki in assay [1] is 6.95 nM. For the same compound, in assay [2] (Homo sapiens, NCI-H929, 48 h), the IC50 was found to be 1710 nM.

For `C[C@@H](COc1ccnc2c1[C@@H](C)CC[C@@H]2O)C[C@H]1Cc2ccccc2[C@]12CC[C@@](Nc1cccc(Cl)c1)(C(=O)O)CC2` [Example 675, (1r,2′S,4S)-4-(3-chloroanilino)-2′-[(2R)-3-{[(5S,8S)-8-hydroxy-5-methyl-5,6,7,8-tetrahydroquinolin-4-yl]oxy}-2-methylpropyl]-2′,3′-dihydrospiro[cyclohexane-1,1′-indene]-4-carboxylic acid], the inhibition constant (Ki) in assay [1] was found to be 29.9 nM. Further, the IC50 in assay [2] (Homo sapiens, NCI-H929, 48 h) was found to be 6980 nM.

Consider `C[C@@H](COc1ccnc2c1[C@H](C)CC[C@H]2O)C[C@H]1Cc2ccccc2[C@]12CC[C@@](Nc1cccc(Cl)c1)(C(=O)O)CC2` [Example 676, (1r,2′S,4S)-4-(3-chloroanilino)-2′-[(2R)-3-{[(5R,8R)-8-hydroxy-5-methyl-5,6,7,8-tetrahydroquinolin-4-yl]oxy}-2-methylpropyl]-2′,3′-dihydrospiro[cyclohexane-1,1′-indene]-4-carboxylic acid], for which the Ki in assay [1] stood at 0.418 nM. The IC50 in assay [2] came to 65.6 nM.

As for `C[C@@H](COc1ccnc2c1[C@H](C)CC=C2)C[C@H]1Cc2ccccc2[C@]12CC[C@@](Nc1cccc(Cl)c1)(C(=O)O)CC2` [Example 677, (1r,2′S,4S)-4-(3-chloroanilino)-2′-[(2R)-2-methyl-3-{[(5R)-5-methyl-5,6-dihydroquinolin-4-yl]oxy}propyl]-2′,3′-dihydrospiro[cyclohexane-1,1′-indene]-4-carboxylic acid], the Ki in assay [1] amounted to 1.18 nM. Moreover, in assay [2] (Homo sapiens, NCI-H929, 48 h), the IC50 stood at 245 nM.

In the case of `CC[C@H]1CC[C@H](O)c2nccc(OC[C@H](C)C[C@H]3Cc4ccccc4[C@]34CC[C@@](Nc3cccc(Cl)c3)(C(=O)O)CC4)c21` [Example 678, (1r,2′S,4S)-4-(3-chloroanilino)-2′-[(2R)-3-{[(5S,8S)-5-ethyl-8-hydroxy-5,6,7,8-tetrahydroquinolin-4-yl]oxy}-2-methylpropyl]-2′,3′-dihydrospiro[cyclohexane-1,1′-indene]-4-carboxylic acid], the Ki in assay [1] was determined as 221 nM. The IC50 in assay [2] (Homo sapiens, NCI-H929, 48 h) worked out at 9630 nM.

In the case of `CC[C@@H]1CC[C@@H](O)c2nccc(OC[C@H](C)C[C@H]3Cc4ccccc4[C@]34CC[C@@](Nc3cccc(Cl)c3)(C(=O)O)CC4)c21` [Example 679, (1r,2′S,4S)-4-(3-chloroanilino)-2′-[(2R)-3-{[(5R,8R)-5-ethyl-8-hydroxy-5,6,7,8-tetrahydroquinolin-4-yl]oxy}-2-methylpropyl]-2′,3′-dihydrospiro[cyclohexane-1,1′-indene]-4-carboxylic acid], the Ki in assay [1] amounted to 2.32 nM. In assay [2] (Homo sapiens, NCI-H929, 48 h), the IC50 was found to be 199 nM.

For the compound `C[C@@H](COc1ccnc2c1CCC[C@@H]2F)C[C@H]1Cc2ccccc2[C@]12CC[C@@](Nc1cccc(Cl)c1)(C(=O)O)CC2` [Example 680, (1r,2′S,4S)-4-(3-chloroanilino)-2′-[(2R)-3-{[(8S)-8-fluoro-5,6,7,8-tetrahydroquinolin-4-yl]oxy}-2-methylpropyl]-2′,3′-dihydrospiro[cyclohexane-1,1′-indene]-4-carboxylic acid], the Ki in assay [1] worked out at 2.09 nM. Moreover, in assay [2] (Homo sapiens, NCI-H929, 48 h), the IC50 worked out at 687 nM.

On to `C[C@@H](COc1ccnc2c1CCC[C@H]2F)C[C@H]1Cc2ccccc2[C@]12CC[C@@](Nc1cccc(Cl)c1)(C(=O)O)CC2` [Example 681, (1r,2′S,4S)-4-(3-chloroanilino)-2′-[(2R)-3-{[(8R)-8-fluoro-5,6,7,8-tetrahydroquinolin-4-yl]oxy}-2-methylpropyl]-2′,3′-dihydrospiro[cyclohexane-1,1′-indene]-4-carboxylic acid], for which the Ki in assay [1] worked out at 3.26 nM. In addition, in assay [2] (Homo sapiens, NCI-H929, 48 h), the IC50 is 1160 nM.

As to `C[C@@H](COc1ccnc2c1CCC/C2=C\F)C[C@H]1Cc2ccccc2[C@]12CC[C@@](Nc1cccc(Cl)c1)(C(=O)O)CC2` [Example 684, (1r,2′S,4S)-4-(3-chloroanilino)-2′-[(2R)-3-{[(8E)-8-(fluoromethylidene)-5,6,7,8-tetrahydroquinolin-4-yl]oxy}-2-methylpropyl]-2′,3′-dihydrospiro[cyclohexane-1,1′-indene]-4-carboxylic acid], the Ki in assay [1] is 45.5 nM. Also, the IC50 in assay [2] (Homo sapiens, NCI-H929, 48 h) is 5850 nM.

Turning to `C[C@@H](COc1ccnc2c1[C@@H](C)CC[C@H]2F)C[C@H]1Cc2ccccc2[C@]12CC[C@@](Nc1cccc(Cl)c1)(C(=O)O)CC2` [Example 687, (1r,2′S,4S)-4-(3-chloroanilino)-2′-[(2R)-3-{[(5R,8S)-8-fluoro-5-methyl-5,6,7,8-tetrahydroquinolin-4-yl]oxy}-2-methylpropyl]-2′,3′-dihydrospiro[cyclohexane-1,1′-indene]-4-carboxylic acid], in assay [1], the Ki is 4.25 nM. The IC50 in assay [2] (Homo sapiens, NCI-H929, 48 h) amounted to 600 nM.

`C[C@@H](COc1ccnc2c1[C@H](C)CC[C@@H]2F)C[C@H]1Cc2ccccc2[C@]12CC[C@@](Nc1cccc(Cl)c1)(C(=O)O)CC2` [Example 688, (1r,2′S,4S)-4-(3-chloroanilino)-2′-[(2R)-3-{[(5S,8R)-8-fluoro-5-methyl-5,6,7,8-tetrahydroquinolin-4-yl]oxy}-2-methylpropyl]-2′,3′-dihydrospiro[cyclohexane-1,1′-indene]-4-carboxylic acid]: in assay [1], the Ki was determined as 0.965 nM. Besides, in assay [2] (Homo sapiens, NCI-H929, 48 h), the IC50 is 234 nM.

For the compound `C[C@@H](COc1ccnc2c1[C@H](C)CC[C@H]2F)C[C@H]1Cc2ccccc2[C@]12CC[C@@](Nc1cccc(Cl)c1)(C(=O)O)CC2` [Example 689, (1r,2′S,4S)-4-(3-chloroanilino)-2′-[(2R)-3-{[(5R,8R)-8-fluoro-5-methyl-5,6,7,8-tetrahydroquinolin-4-yl]oxy}-2-methylpropyl]-2′,3′-dihydrospiro[cyclohexane-1,1′-indene]-4-carboxylic acid], in assay [1], the Ki is 1.46 nM. Moreover, in assay [2] (Homo sapiens, NCI-H929, 48 h), the IC50 came to 117 nM.

Regarding `C[C@@H](COc1ccnc2c1[C@@H](C)CC[C@@H]2F)C[C@H]1Cc2ccccc2[C@]12CC[C@@](Nc1cccc(Cl)c1)(C(=O)O)CC2` [Example 690, (1r,2′S,4S)-4-(3-chloroanilino)-2′-[(2R)-3-{[(5S,8S)-8-fluoro-5-methyl-5,6,7,8-tetrahydroquinolin-4-yl]oxy}-2-methylpropyl]-2′,3′-dihydrospiro[cyclohexane-1,1′-indene]-4-carboxylic acid], in assay [1], the inhibitory constant (Ki) was determined as 29.5 nM. The IC50 in assay [2] (Homo sapiens, NCI-H929, 48 h) is 1410 nM.

For `C[C@@H](COc1ccnc2c1C(OC(F)F)CCC2)C[C@H]1Cc2ccccc2[C@]12CC[C@@](Nc1cccc(Cl)c1)(C(=O)O)CC2` (stereo partly drawn) [Example 691, (1r,2′S,4S)-4-(3-chloroanilino)-2′-[(2R)-3-{[5-(difluoromethoxy)-5,6,7,8-tetrahydroquinolin-4-yl]oxy}-2-methylpropyl]-2′,3′-dihydrospiro[cyclohexane-1,1′-indene]-4-carboxylic acid], in assay [1], the Ki turned out to be 10.9 nM. Besides, the IC50 in assay [2] (Homo sapiens, NCI-H929, 48 h) amounted to 806 nM.
